Values quoted from earlier work, collected in US20050245902A1, “Substance delivery device” (priority 2002, published 2005).

Legend:
[1] = in vivo

water solubility: poorly water-soluble | half life [1]: 20 min
SMILES: CC(=O)[C@H]1CC[C@H]2[C@@H]3CCC4=CC(=O)CC[C@]4(C)[C@H]3CC[C@]12C [progesterone]
